Source: patent US9766241B2, “PGC-1beta-protein-function regulator, mitochondria-function regulator, anti-obesity agent, and screening method therefor” (priority 2012, dated 2017)
Where a SMILES comes first, the peptide text is derived from it. The star is where a group is joined. Cbz = O=C(OCc1ccccc1)*

Tests used:
[1] = molecular target: T1, binding between synoviolin and PGC-1β (Homo sapiens, UniProt Q86TM6, E545G); experiment: in vitro binding assay between synoviolin and PGC-1β (Western blot)
T1 construct: GST fusion synoviolin which lack transmembrane domain (GST syno ΔTM); made in house
Procedure: In order to investigate an influence on PGC-1β functions by inhibitor of E3 ubiquitin ligase activity of synoviolin, an effect on inhibition of binding between the synoviolin and the PGC-1β was firstly investigated. Specifically, in a usual binding assay using MBP-PGC-1β-His protein and GST-Syno ΔTM protein, LS-102 (PARMACOPIEA, Corporation) was added and these proteins were incubated for 12 hours. Then, these proteins were separated by SDS-PAGE of 12% gel concentration, and Western blot was performed. Anti-GST antibody diluted 2500 folds were used as a primary antibody, and anti-rat HRP diluted 10000 folds was used as a secondary antibody.
In order to obtain a substance which inhibits the binding between synoviolin and PGC-1β, with respect to the substances shown in the following table 2 included in screening library relating to E3 ubiquitin ligase, in order to examine influence on the binding between synoviolin and PGC-1β, in vitro binding assays similar to the examples 3 to 6 were performed. The results were shown in FIGS. 11-1, 11-2, 11-3, and 11-4. In this example, 2 μg of PGC-1β (see FIG. 4) and 2 μg of GST-Syno ΔTM (see FIG. 6) were used.
The binding assay was performed using the following assay system. 2 μg of MBP-PGC-1β His (1-367aa) and 2 μg of the modified synoviolin fused to GST were bound for 12 hours in a buffer (20 mM Tris-HCl pH 8.0, 100 mM NaCl, 1 mM EDTA. 0.1% NP-40, 5% glucose 1, and protease inhibitors) to detect PGC-1β using anti-PGC-1β antibody.

[2] = system: PGC-1β; experiment: PGC-1β protein and mRNA level in treated HEK 293 cells; format: cell-based
Procedure: Firstly, synoviolin knock down was performed by siRNA in HEK 293 cells. Synoviolin siRNA was prepared in accordance with already reported article (see, Yamasaki, S., et al. (2007). Cytoplasmic destruction of p53 by the endoplasmic reticulum-resident ubiquitin ligase ‘Synoviolin’. EMBO J 26, 113-122.). Transfection of siRNA into cells was performed in accordance with a protocol with Lipofectamine 2000 (Invitrogen, Corporation).
When a protein level of the PGC-1β was investigated as a confirmation, the protein level of the PGC-1β was doubled in LS-102 treated cells. On the other hand, the expression of PGC-1β mRNA was not changed by the LS-102 treatment.

[3] = system: mitochondria in adipose tissue cells; experiment: mitochondria in adipose tissue of mice given LS-102 (electron micrographs); format: in vivo, C57BL/6J mice; details: 50 mg/kg body weight per day intraperitoneally, fifty seventh day, vs DMSO, FIG. 18
Procedure: 50 mg/kg body weight of LS-102 per day or solvent (DMSO) as a control was administered intraperitoneally to 7 to 8-week-old C57BL/6J mice to observe adipose tissue slices of the mice of fifty seventh day after the administration using a microscope. […] Magnifications of the electron microscope were 2,500 folds and 10,000 folds and the white bars indicate scale bars (2 μm in the 2,500 folds and 500 nm in the 10,000 folds).

[4] = system: PGC-1β; experiment: PGC-1β protein and mRNA level in skin fibroblasts from syno cKO mice (Western blot, real-time PCR); format: cell-based, mouse
Procedure: Skin fibroblasts from syno CKO mice were cultivated in DMEM medium and treated by tamoxifen (Tam) or solvent (DMSO) for 48 hours. Cell extracts or total RNA were collected, each was used for western blot and real-time PCR, respectively.
Further, in order to investigate whether […] was involved in synoviolin-mediated degradation of PGC-1β in cells, after the treatment by tamoxifen or solvent in the above experiment, 10 μM of MG-132, which is a proteasome inhibitor, was added and treated for two hours, and then, similar experiment was performed.

[5] = system: PPRE ×3-TK-luc reporter (PGC-1β coactivator function); experiment: Luciferase assay with PPRE ×3-TK-luc reporter in HEK-293 cells; format: cell-based
Procedure: Specifically, control siRNA or Syno siRNA was temporarily transfected in HEK-293 cells. Reporter plasmid containing PPAR binding sites (PPRE ×3-TK-luc), CMV-β-gal expression construct, or siRNA was temporarily transfected in HEK-293 cells. After 16 hours, DMSO or Wy-14643 was treated for 6 hours, and then Luciferase assay was performed (FIG. 9B).
After 16 hours from the transfection, cells were treated with solvent (DMSO) or Wy-14643 for 6 hours and the Luciferase assay was performed.
The luciferase assay was performed similar to the example 9 except for using 5 μM of LS-102, 0.1 μM and 0.5 μM of 348, 0.1 μM and 5 μM of 349, and 5 μM of 351 and 355 instead of transfecting the Syno siRNA in the example 9. The same volume of DMSO, which is a solvent of each compound, was added as a control.

[6] = molecular target: T2, PGC-1β ubiquitination by synoviolin (SYVN1) (Homo sapiens, UniProt Q86TM6); experiment: in vitro ubiquitination of PGC-1β by synoviolin (Western blot); format: biochemical; details: for inhibiting activity of the PGC-1β ubiquitination, concentration dependency: 1 μM and 10 μM, FIG. 21; for polyubiquitination of PGC-1β: compared to control group (DMSO), FIG. 11-4
T2 construct: MBP-Syno ΔTM-His means synoviolin in which transmembrane domain has been deleted; His tag (C)
Procedure: The ubiquitin assay was performed using the following assay system. E1-His 125 ng, UbcH5C 150 ng, MBP-SYVN1 ΔTM-His 150 ng, GST-PGC-1β (1-367 aa; GST-P5), and HA-ubiquitin (HA-Ub) 750 ng were reacted at 30° C. for 2 hours in a buffer (50 mM Tris-HCL pH 7.5, 5 mM MgCl2, 0.6 mM DTT, and 2 mM ATP) to be ubiquitinated. Thereafter, the ubiquitinated proteins were bound to Glutathione Sepharose in GST washing buffer (50 mM Tris-HCl pH 7.5, 0.5 M NaCl, 1% Triton X, 1 mM EDTA, 1 mM DTT, and protease inhibitors). After washing with the GST washing buffer, ubiquitination of PGC-1β was detected by Western blotting using anti-PGC-1β antibody and anti-HA antibody.
In order to examine the concentration dependency of the inhibiting activity of test substances 348 and 349 in PGC-1β ubiquitination by synoviolin (SYVN1), the in vitro binding assay was performed in the same manner as described in Example 11.

[7] = system: mitochondria in HEK-293 cells; experiment: electron microscope observation of mitochondria in treated cells; format: cell-based; details: 1 μM, observed after 72 hours, FIG. 13
Procedure: The observation of mitochondria was performed similar to the example 9 except for observing after 72 hours from adding 1 μM of 348, 349, 351 and 355 to cells instead of transfecting the Syno siRNA in the example 9.

[8] = molecular target: T3, synoviolin protein (Homo sapiens, UniProt Q86TM6); details: disclosed in JP 2008-74753 A; cited from earlier work
T3 construct: MBP-Syno ΔTM-His means synoviolin in which transmembrane domain has been deleted; His tag (C)

[9] = 2 μg PGC-1β and 2 μg GST-Syno ΔTM, FIGS. 11-1 to 11-4

T2 sequence (Q86TM6 246-617 limits assumed): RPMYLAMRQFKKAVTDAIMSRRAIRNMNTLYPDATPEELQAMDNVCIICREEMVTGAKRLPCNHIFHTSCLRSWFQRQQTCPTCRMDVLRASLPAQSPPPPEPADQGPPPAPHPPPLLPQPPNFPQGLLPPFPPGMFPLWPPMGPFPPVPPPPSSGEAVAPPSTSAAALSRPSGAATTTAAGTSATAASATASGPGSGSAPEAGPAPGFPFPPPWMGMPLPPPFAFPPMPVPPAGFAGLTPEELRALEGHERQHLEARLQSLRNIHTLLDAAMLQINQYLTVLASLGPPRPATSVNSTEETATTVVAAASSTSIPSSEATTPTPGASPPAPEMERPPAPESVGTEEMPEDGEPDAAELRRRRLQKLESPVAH
T1 sequence (Q86TM6 236-617 E545G): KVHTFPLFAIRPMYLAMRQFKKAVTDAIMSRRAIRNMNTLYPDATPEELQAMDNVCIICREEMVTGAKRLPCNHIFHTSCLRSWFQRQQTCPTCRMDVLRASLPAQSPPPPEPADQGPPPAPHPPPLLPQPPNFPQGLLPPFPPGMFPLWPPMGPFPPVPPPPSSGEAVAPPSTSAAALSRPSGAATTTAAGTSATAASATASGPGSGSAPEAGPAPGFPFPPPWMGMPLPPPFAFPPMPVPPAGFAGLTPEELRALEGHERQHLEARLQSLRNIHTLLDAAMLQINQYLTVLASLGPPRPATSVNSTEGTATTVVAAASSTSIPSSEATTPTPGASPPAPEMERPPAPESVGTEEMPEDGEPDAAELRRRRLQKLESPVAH
T3 sequence (Q86TM6 246-617 limits assumed): as the sequence (Q86TM6 246-617 limits assumed) above

## CCNCCN(CC)c1nc(Nc2ccc3ncoc3c2)nc(N[C@@H](C)C2CCCCC2)n1 [LS-102]
[1]; MBP-PGC-1β-His and GST-Syno ΔTM, incubated 12 hours, FIG. 10
  binding between synoviolin and PGC-1β: has an effect on inhibition of binding
[2]; LS-102 treated cells
  protein level of the PGC-1β: doubled
[2]; LS-102 treatment
  expression of PGC-1β mRNA: not changed
[3]
  number and volume density of mitochondria in the adipose tissue cells: increases in number and volume density of mitochondria

## CC(C)C[C@@H](C=O)NC(=O)[C@H](CC(C)C)NC(=O)[C@H](CC(C)C)NC(=O)OCc1ccccc1 [MG-132] (Cbz-Leu-Leu-Leu-aldehyde)
[4]; 10 μM MG-132 for two hours, solvent-treated (DMSO-treated) skin fibroblasts
  protein level of PGC-1β: 1.6 folds
[4]; 10 μM MG-132 for two hours, tamoxifen-treated skin fibroblasts
  protein level of PGC-1β, additive effect of tamoxifen treatment and MG-132: 1.1 folds

## CC/C(=C(\c1ccccc1)c1ccc(OCCN(C)C)cc1)c1ccccc1 [Tam]
[4]; Tam treatment 48 hours (induces synoviolin knockout) vs DMSO, skin fibroblasts of syno cKO mice
  protein level of PGC-1β: 1.4 folds
[4]; Tam treatment 48 hours, skin fibroblasts of syno cKO mice
  mRNA level of PGC-1β: no change

## Cc1cccc(Nc2cc(Cl)nc(SCC(=O)O)n2)c1C [Wy-1463, reference compound]
[5]; PPARα agonist treated for 6 hours vs DMSO, FIG. 9B
  PPRE ×3-TK-luc reporter activity: induced

## O=C1C=CC(=O)c2c(O)ccc(O)c21 [compound 348]
[1]; [9]
  binding between synoviolin and PGC-1β: inhibition of the binding
[6]
  inhibiting activity of the PGC-1β ubiquitination, concentration dependency: in 10 μM is higher than that in 1 μM
  polyubiquitination of PGC-1β: suppressed
[7]
  number and size of mitochondria: proliferation (increase in the number) of mitochondria or increase in size of mitochondria has been observed

## O=C1C=CC(=O)c2c(O)cccc21 [compound 349]
[1]; [9]
  binding between synoviolin and PGC-1β: inhibition of the binding
[6]
  inhibiting activity of the PGC-1β ubiquitination, concentration dependency: in 10 μM is higher than that in 1 μM
  polyubiquitination of PGC-1β: suppressed
[7]
  number and size of mitochondria: proliferation (increase in the number) of mitochondria or increase in size of mitochondria has been observed

## CC1=CC(=O)c2ccccc2C1=O [compound 351]
[5]; compounds instead of Syno siRNA (351: 5 μM), DMSO control, FIG. 12
  luciferase activity: lowered
[1]; [9]
  binding between synoviolin and PGC-1β: enhances the binding

## O=C1CCC(=O)c2c(O)cccc21 [compound 355]
[1]; [9]
  binding between synoviolin and PGC-1β: inhibition of the binding
[7]
  number and size of mitochondria: proliferation (increase in the number) of mitochondria or increase in size of mitochondria has been observed

## O=C1C=CC(=O)c2c(Cl)ccc(O)c21 [compound 358]
[1]; [9]
  binding between synoviolin and PGC-1β: inhibition of the binding

## CC1=CC(=O)c2c(O)cccc2C1=O [plumbagin, 2-methyl-5-hydroxy-1,4-naphthoquinone]
[8]
  self-ubiquitination of synoviolin protein: inhibit self-ubiquitination of synoviolin protein

## O=c1c(O)c(-c2ccc(O)c(O)c2)oc2cc(O)cc(O)c12 [quercetin, 2-(3,4-dihydroxyphenyl)-3,5,7-trihydroxy-4H-1-benzopyrano-4-on, reference compound]
[8]
  self-ubiquitination of synoviolin protein: inhibit self-ubiquitination of synoviolin protein
[1]; [9]
  binding between synoviolin and PGC-1β: inhibition of the binding
